Experimental data reported in patent US5599553A, “Local drug delivery film for periodontal treatment” (Dong Kook Pharmaceutical Co., Ltd., priority 1992, dated 1997).

Assays:
[1] = tested on: human gingival fibroblast; assay: Rapid colorimetric assay for cellular growth survival (MTT)
Method: The floating solution obtained was devided into microtest plate well (obtained from Nuck, Denmark) as much as 2.5×10cell/well using the standard blood corpuscle calculation method so that MEM containing 10% fatal calf serum, peniciline 10 units/ml, streptomycine 100 μg/ml and fungizone 0.2 μl/ml became containing 2500, 5000, 10000, 15000, 20000, and 30000 cell per 200 ml and the resulting solution was incubated. Culture solution was changed next day. After 2 days, culture solution was removed and washed with HBSS. […] This was incubated in incubator at 37° C. […] As control group, MEM culture solution well was used every test. All test results were calculated as percentage unit to control group.

[2] = tested on: Actinobacillus actinomycetemcomitans; assay: Susceptibility test of antibiotics / MIC of minocycline; assay type: cell-based
Method: (§1) At first, the minimal inhibitory concentration (hereinafter it is abbreviated to MIC) of minocycline for bacilli, especially Antinobacillus actinomycetemcomitans as main bacillus and the minimum period to optimum treatment effect with MIC were examined. […] Also, it was reported by Goodson et al. that the concentration more than MIC has to be sustained to inhibit growth of periodontal bacillus for at least 48 hours, especially at least 10 days for optimum treatment effect. Accordingly, local drug delivery should sustain the concentration of minocyclne in the periodontal pocket at least 4 μg/ml for at least 48 hours, and especially more than 10 days to optimize treatment effect. So the present local drug delivery was examined to learn if it coincided with the standard or not.

[3] = tested on: human gingival fibroblast; assay: Cytotoxic inhibition activity, [3H]-thymidine incorporation
Method: Human gingival fibroblast was cultivated and divided into 24 multi-well dish as much as 1×10 ^5 cell/well each. Medium was chant ed next day. After 3 days, medium was removed and washed with Hank's balanced salt solution (hereinafter it is abbreviated to HBSS). […] After 2 hours, said solutions were stood at 4° C. for 10 min using ice cold 5% Trichloroacetic acid (TCA) 3 ml. After washing 3 or 4 times with TCA, removed TCA, and dissolved gingival fibroblast by 0.5N-NaOH 1 ml at 37° C. for 30 min. 50 μl of said solution was taken, added 4 ml of cocktail solution to said solution and count per minute was measured by liquid scintillation counter.

[4] = tested on: 139 kinds of tested bacilli; assay: Susceptibility test of antibiotics to bacilli in mouth; assay type: cell-based
Method: as §1

CN(C)c1ccc(O)c2c1C[C@H]1C[C@H]3[C@H](N(C)C)C(=O)C(C(N)=O)=C(O)[C@@]3(O)C(=O)C1=C2O [minocycline]
difference in cell activity according to minocycline concentration [1]: difference in cell activity according to concentration of minocycline was not observed
break point of minocycline concentration to periodontal treatment [2]: 2 to 4 µg/mL
MIC ([2]; Aggregatibacter actinomycetemcomitans, read-out: concentration of minocycline at which susceptibility is shown): 2 to 4 µg/mL
growth of gingival fibroblast ([3]; 160 μg/ml to 2560 μg/ml): growth of gingival fibroblast was not inhibited
growth inhibition of gingival fibroblast ([3]; observation for 7 days): statistical singnificance about growth inhibitory of gingival fibroblast was not observed
tested bacilli that showed susceptibility [4]: 98%
